Patent publication US8247211B2, “Glycopeptide antibiotics” (American Cyanamid Company, priority 2001, dated 2012)
In brackets after ≈: the same amount, converted by molar mass.

Assays:
Assay in all cases: In vitro antibacterial evaluation: minimum inhibitory concentration (MIC), broth dilution method
Type in all cases: cell-based
Streptococcus sp. = tested on: Streptococcus sp.
Protocol: (§1) The minimum inhibitory concentration (MIC), the lowest concentration of the antibiotic which inhibits growth of the test organism, is determined by the broth dilution method using Muller-Hinton II […] (Baltimore Biological Laboratories) following the recommendations of the National Committee for Clinical Laboratory Standards [Methods for dilution antimicrobial susceptibility tests for bacteria that grow aerobically, approved standard M7-A2, National Committee for Clinical Laboratory Standards, Villanova, Pa].
(§2) An inoculum level of 5×10^5 CFU/mL, and a range of antibiotic concentrations (64-0.06 μg/mL) is used. […] The test organisms include a spectrum of Gram-positive bacteria comprised of Staphylococcus sp., Streptococcus sp. and Enterococcus sp. These organisms include recent clinical isolates that are resistant to methicillin, penicillin and/or vancomycin.

Enterococcus sp. = tested on: Enterococcus sp.
Protocol: as §1, §2

Staphylococcus sp. = tested on: Staphylococcus sp.
Protocol: as §1, §2

Escherichia coli = tested on: Escherichia coli
Protocol: as §1, §2

[1] = broth dilution, 5×10^5 CFU/mL, 18 hours at 35° C.
[2] = strain GC 4543, broth dilution, 18 hours at 35° C.
[3] = strain GC 4546, broth dilution, 18 hours at 35° C.
[4] = strain GC 4547, broth dilution, 18 hours at 35° C.
[5] = strain GC 4548, broth dilution, 18 hours at 35° C.
[6] = strain GC 4549, broth dilution, 18 hours at 35° C.
[7] = strain GC 4551, broth dilution, 18 hours at 35° C.
[8] = strain GC 6257, broth dilution, 18 hours at 35° C.
[9] = 5×10^5 CFU/mL, 18 hours at 35° C.

CC(c1ccccc1)C1NC(=O)CNC(=O)C(CO)NC(=O)C(C(O)C2CNC(=N)N2C2OC(CO)C(O)C(O)C2O)NC(=O)C(C(O)C2CNC(=N)N2)NC(=O)C(Cc2ccc(OC3OC(CO)C(OC4OC(CO)C(O)C5OC(c6ccccc6)OC45)C(O)C3O)cc2)NC1=O (single isomer, unassigned) [Example 104b, Cyclo[glycyl-β-methylphenylalanyl-O-[4-O-(2,3-O-benzylidenehexopyranosyl)hexopyranosyl]-tyrosyl-3(2-iminoimidazolidin-4-yl)seryl-3-(3-hexopyranosyl-2-iminoimidazolidin-4-yl)-serylseryl]]
MIC Streptococcus agalactiae (GC 4564) (Streptococcus sp.; [1]): 0.5 µg/mL (≈ 0.361 µM) | MIC Streptococcus pneumoniae (GC 1894) (Streptococcus sp.; [1]): 0.12 µg/mL (≈ 0.0867 µM) | MIC Streptococcus pneumoniae (GC 4565) (Streptococcus sp.; [1]): 0.12 µg/mL (≈ 0.0867 µM) | MIC Streptococcus pneumonine (ATCC 6301) (Streptococcus sp.; [1]): 0.12 µg/mL (≈ 0.0867 µM) | MIC Streptococcus pyogenes (GC 4563) (Streptococcus sp.; [1]): 0.12 µg/mL (≈ 0.0867 µM) | MIC Enterococccus avium (GC 4558) (Enterococcus sp.; [1]): 0.5 µg/mL (≈ 0.361 µM) | MIC Enterococccus faecalis (ATCC 29212) (Enterococcus sp.; [1]): 0.5 µg/mL (≈ 0.361 µM) | MIC Enterococccus faecalis (GC 2691) (Enterococcus sp.; [1]): 0.5 µg/mL (≈ 0.361 µM) | MIC Enterococccus faecalis (GC 3059) (Enterococcus sp.; [1]): 0.5 µg/mL (≈ 0.361 µM) | MIC Enterococccus faecalis (GC 4552) (Enterococcus sp.; [1]): 0.5 µg/mL (≈ 0.361 µM) | MIC Enterococccus faecalis (GC 4553) (Enterococcus sp.; [1]): 0.5 µg/mL (≈ 0.361 µM) | MIC Enterococccus faecalis (GC 4554) (Enterococcus sp.; [1]): 0.5 µg/mL (≈ 0.361 µM) | MIC Enterococccus faecalis (GC 6189) (Enterococcus sp.; [1]): 0.5 µg/mL (≈ 0.361 µM) | MIC Enterococccus faecium (GC 2243) (Enterococcus sp.; [1]): 0.5 µg/mL (≈ 0.361 µM) | MIC Enterococccus faecium (GC 4556) (Enterococcus sp.; [1]): 0.5 µg/mL (≈ 0.361 µM) | MIC Enterococccus faecium (GC 4557) (Enterococcus sp.; [1]): 0.5 µg/mL (≈ 0.361 µM) | MIC Enterococcus faecalis (GC 2242) (Enterococcus sp.; [1]): 0.5 µg/mL (≈ 0.361 µM) | MIC Staphylococcus aureus (ATCC 29213) (Staphylococcus sp.; strain ATCC 29213): 0.5 µg/mL (≈ 0.361 µM) | MIC Staphylococcus aureus (GC 1131) (Staphylococcus sp.; strain GC 1131): 0.5 µg/mL (≈ 0.361 µM) | MIC Staphylococcus aureus (GC 3051) (Staphylococcus sp.; strain GC 3051): 0.5 µg/mL (≈ 0.361 µM) | MIC Staphylococcus aureus (GC 3053) (Staphylococcus sp.; strain GC 3053): 0.5 µg/mL (≈ 0.361 µM) | MIC Staphylococcus aureus (GC 4541) (Staphylococcus sp.; strain GC 4541): 0.5 µg/mL (≈ 0.361 µM) | MIC Staphylococcus aureus (GC 4542) (Staphylococcus sp.; strain GC 4542): 0.5 µg/mL (≈ 0.361 µM) | MIC Staphylococcus aureus-SMITH (GC 4543) (Staphylococcus sp.; strain GC 4543, 18 hours at 35° C.): 0.5 µg/mL (≈ 0.361 µM) | MIC Staphylococcus aureus-SMITH (GC 4543) (Staphylococcus sp.; [2]): 0.5 µg/mL (≈ 0.361 µM) | MIC Staphylococcus aureus (GC 4544) (Staphylococcus sp.; strain GC 4544): 0.5 µg/mL (≈ 0.361 µM) | MIC Staphylococcus aureus (GC 4545) (Staphylococcus sp.; strain GC 4545): 0.5 µg/mL (≈ 0.361 µM) | MIC Staphylococcus haemolyticus (GC 4546) (Staphylococcus sp.; strain GC 4546): 0.5 µg/mL (≈ 0.361 µM) | MIC Staphylococcus haemolyticus (GC 4546) (Staphylococcus sp.; [3]): 0.5 µg/mL (≈ 0.361 µM) | MIC Coagulase Negative Staphylococcus (GC 4547) (Staphylococcus sp.; strain GC 4547): 4 µg/mL (≈ 2.89 µM) | MIC Coagulase Negative Staphylococcus (GC 4547) (Staphylococcus sp.; [4]): 4 µg/mL (≈ 2.89 µM) | MIC Coagulase Negative Staphylococcus (GC 4548) (Staphylococcus sp.; strain GC 4548): 4 µg/mL (≈ 2.89 µM) | MIC Coagulase Negative Staphylococcus (GC 4548) (Staphylococcus sp.; [5]): 4 µg/mL (≈ 2.89 µM) | MIC Coagulase Negative Staphylococcus (GC 4549) (Staphylococcus sp.; strain GC 4549): 4 µg/mL (≈ 2.89 µM) | MIC Coagulase Negative Staphylococcus (GC 4549) (Staphylococcus sp.; [6]): 4 µg/mL (≈ 2.89 µM) | MIC Coagulase Negative Staphylococcus (GC 4551) (Staphylococcus sp.; strain GC 4551): 8 µg/mL (≈ 5.78 µM) | MIC Coagulase Negative Staphylococcus (GC 4551) (Staphylococcus sp.; [7]): 8 µg/mL (≈ 5.78 µM) | MIC Coagulase Negative Staphylococcus (GC 6257) (Staphylococcus sp.; strain GC 6257): 2 µg/mL (≈ 1.45 µM) | MIC Coagulase Negative Staphylococcus (GC 6257) (Staphylococcus sp.; [8]): 2 µg/mL (≈ 1.45 µM) | MIC Escherichia coli (ATCC 25922) (Escherichia coli; [9]): >0.5 µg/mL | MIC Escherichia coli (GC 4559) (Escherichia coli; [9]): >0.5 µg/mL | MIC Escherichia coli (GC 4560) (Escherichia coli; [9]): 0.5 µg/mL (≈ 0.361 µM)

COc1cccc(C2OC3C(OC4C(CO)OC(Oc5ccc(CC6NC(=O)C(C(C)c7ccccc7)NC(=O)CNC(=O)C(CO)NC(=O)C(C(O)C7CNC(=N)N7C7OC(CO)C(O)C(O)C7O)NC(=O)C(C(O)C7CNC(=N)N7)NC6=O)cc5)C(O)C4O)OC(CO)C(O)C3O2)c1 (single isomer, unassigned) [Example 137a, Cyclo[glycyl-β-methylphenylalanyl-O-[4-O-[2,3-O-(3-methoxybenzylidene)hexopyranosyl]-hexopyranosyl]tyrosyl-3-(2-iminoimidazolidin-4-yl)seryl-3-(3-hexopyranosyl-2-iminoimidazolidin-4-yl)serylseryl]]
MIC Streptococcus pneumoniae (ATCC 6301) (Streptococcus sp.; strain ATCC 6301): 8 µg/mL (≈ 5.66 µM) | MIC Streptococcus pneumoniae (GC 1894) (Streptococcus sp.; strain GC 1894): 4 µg/mL (≈ 2.83 µM) | MIC Streptococcus pyogenes (GC 4563) (Streptococcus sp.; strain GC 4563): 16 µg/mL (≈ 11.3 µM) | MIC Streptococcus agalactiae (GC 4564) (Streptococcus sp.; strain GC 4564): 16 µg/mL (≈ 11.3 µM) | MIC Streptococcus pneumoniae (GC 4565) (Streptococcus sp.; strain GC 4565): 16 µg/mL (≈ 11.3 µM) | MIC Enterococcus faecalis (ATCC 29212) (Enterococcus sp.; strain ATCC 29212): >64 µg/mL | MIC Enterococcus faecalis (GC 2242) (Enterococcus sp.; strain GC 2242): >64 µg/mL | MIC Enterococcus faecium (GC 2243) (Enterococcus sp.; strain GC 2243): >64 µg/mL | MIC Enterococcus faecalis (GC 2691) (Enterococcus sp.; strain GC 2691): >64 µg/mL | MIC Enterococcus faecalis (GC 3059) (Enterococcus sp.; strain GC 3059): >64 µg/mL | MIC Enterococcus faecalis (GC 4552) (Enterococcus sp.; strain GC 4552): >64 µg/mL | MIC Enterococcus faecalis (GC 4553) (Enterococcus sp.; strain GC 4553): >64 µg/mL | MIC Enterococcus faecalis (GC 4554) (Enterococcus sp.; strain GC 4554): >64 µg/mL | MIC Enterococcus faecium (GC 4556) (Enterococcus sp.; strain GC 4556): >64 µg/mL | MIC Enterococcus faecium (GC 4557) (Enterococcus sp.; strain GC 4557): 16 µg/mL (≈ 11.3 µM) | MIC Enterococcus avium (GC 4558) (Enterococcus sp.; strain GC 4558): 64 µg/mL (≈ 45.3 µM) | MIC Enterococcus faecalis (GC 6189) (Enterococcus sp.; strain GC 6189): >64 µg/mL | MIC Coagulase Negative Staphylococcus (GC 4547) (Staphylococcus sp.; [1]): 16 µg/mL (≈ 11.3 µM) | MIC Coagulase Negative Staphylococcus (GC 4548) (Staphylococcus sp.; [1]): 8 µg/mL (≈ 5.66 µM) | MIC Coagulase Negative Staphylococcus (GC 4549) (Staphylococcus sp.; [1]): 8 µg/mL (≈ 5.66 µM) | MIC Coagulase Negative Staphylococcus (GC 4551) (Staphylococcus sp.; [1]): 16 µg/mL (≈ 11.3 µM) | MIC Coagulase Negative Staphylococcus (GC 6257) (Staphylococcus sp.; [1]): 8 µg/mL (≈ 5.66 µM) | MIC Staphylococcus aureus (ATCC 29213) (Staphylococcus sp.; [1]): 32 µg/mL (≈ 22.6 µM) | MIC Staphylococcus aureus (GC 1131) (Staphylococcus sp.; [1]): 32 µg/mL (≈ 22.6 µM) | MIC Staphylococcus aureus (GC 3051) (Staphylococcus sp.; [1]): 32 µg/mL (≈ 22.6 µM) | MIC Staphylococcus aureus (GC 3053) (Staphylococcus sp.; [1]): 32 µg/mL (≈ 22.6 µM) | MIC Staphylococcus aureus (GC 4541) (Staphylococcus sp.; [1]): 16 µg/mL (≈ 11.3 µM) | MIC Staphylococcus aureus (GC 4542) (Staphylococcus sp.; [1]): 32 µg/mL (≈ 22.6 µM) | MIC Staphylococcus aureus (GC 4544) (Staphylococcus sp.; [1]): 32 µg/mL (≈ 22.6 µM) | MIC Staphylococcus aureus (GC 4545) (Staphylococcus sp.; [1]): 32 µg/mL (≈ 22.6 µM) | MIC Staphylococcus aureus-SMITH (GC 4543) (Staphylococcus sp.; [1]): 16 µg/mL (≈ 11.3 µM) | MIC Staphylococcus haemolyticus (GC 4546) (Staphylococcus sp.; [1]): 16 µg/mL (≈ 11.3 µM) | MIC Staphylococcus aureus (ATCC 29213) (Staphylococcus sp.; strain ATCC 29213, broth dilution, 18 hours at 35° C.): 32 µg/mL (≈ 22.6 µM) | MIC Staphylococcus aureus (GC 1131) (Staphylococcus sp.; strain GC 1131, broth dilution, 18 hours at 35° C.): 32 µg/mL (≈ 22.6 µM) | MIC Staphylococcus aureus (GC 3051) (Staphylococcus sp.; strain GC 3051, broth dilution, 18 hours at 35° C.): 32 µg/mL (≈ 22.6 µM) | MIC Staphylococcus aureus (GC 3053) (Staphylococcus sp.; strain GC 3053, broth dilution, 18 hours at 35° C.): 32 µg/mL (≈ 22.6 µM) | MIC Staphylococcus aureus (GC 4541) (Staphylococcus sp.; strain GC 4541, broth dilution, 18 hours at 35° C.): 16 µg/mL (≈ 11.3 µM) | MIC Staphylococcus aureus (GC 4542) (Staphylococcus sp.; strain GC 4542, broth dilution, 18 hours at 35° C.): 32 µg/mL (≈ 22.6 µM) | MIC Staphylococcus aureus-SMITH (GC 4543) (Staphylococcus sp.; [2]): 16 µg/mL (≈ 11.3 µM) | MIC Staphylococcus aureus (GC 4544) (Staphylococcus sp.; strain GC 4544, broth dilution, 18 hours at 35° C.): 32 µg/mL (≈ 22.6 µM) | MIC Staphylococcus aureus (GC 4545) (Staphylococcus sp.; strain GC 4545, broth dilution, 18 hours at 35° C.): 32 µg/mL (≈ 22.6 µM) | MIC Staphylococcus haemolyticus (GC 4546) (Staphylococcus sp.; [3]): 16 µg/mL (≈ 11.3 µM) | MIC Coagulase Negative Staphylococcus (GC 4547) (Staphylococcus sp.; [4]): 16 µg/mL (≈ 11.3 µM) | MIC Coagulase Negative Staphylococcus (GC 4548) (Staphylococcus sp.; [5]): 8 µg/mL (≈ 5.66 µM) | MIC Coagulase Negative Staphylococcus (GC 4549) (Staphylococcus sp.; [6]): 8 µg/mL (≈ 5.66 µM) | MIC Coagulase Negative Staphylococcus (GC 4551) (Staphylococcus sp.; [7]): 16 µg/mL (≈ 11.3 µM) | MIC Coagulase Negative Staphylococcus (GC 6257) (Staphylococcus sp.; [8]): 8 µg/mL (≈ 5.66 µM) | MIC Escherichia coli (ATCC 25922) (Escherichia coli; strain ATCC 25922): >64 µg/mL | MIC Escherichia coli (GC 4559) (Escherichia coli; strain GC 4559): >64 µg/mL | MIC Escherichi coli (GC 4560) (Escherichia coli; strain GC 4560): 8 µg/mL (≈ 5.66 µM)
